In the supplement of paper PMC10307832:

Compound: N[C@@H]1CCCN(c2c(/C=C3\SC(=O)NC3=O)cccc2-c2ccccc2)C1 [AZD1208] + N=C(N)NC(=N)NCCc1ccccc1 [Phenformin] (partner 250 µM)
Assay: relative viability (nuclei count vs DMSO), 5 days (fraction); higher = more cells survive
Conditions: first compound 8 µM
How it was run: (§1)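 Values are medians from duplicate plates. Each reflects relative viability, defined as the nuclei count of treated wells over that of vehicle wells. Lung cancer cell lines in 1536-well plates were pin-tool dosed one day after seeding with one drug alone or with a fixed anchor-drug dose plus five library-drug doses (not always all listed) in √10 steps, then fixed, stained and imaged at 4× after 5 days.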

Cell Line | relative viability
NCI-H1666 | 0.559
NCI-H647 | 0.352
LK-2 | 0.135
NCI-H2126 | 0.466
NCI-H2342 | 0.462
SK-MES-1 | 0.621
H3255 | 0.405
COR-L23 | 0.408
COR-L 105 | 0.477
LOU-NH91 | 0.574
ChaGo-K-1 | 0.373
NCI-H2170 | 0.447
NCI-H3122 | 0.422
HOP-62 | 0.613
HCC-44 | 0.176
A549 | 0.127
SW 900 | 0.384
LU99A | 0.638
BEN | 0.269
HARA | 0.468
HCC-78 | 0.644
NCI-H441 | 0.556
LCLC-97TM1 | 0.335
NCI-H2023 | 0.295
NCI-H1563 | 0.665

Compound: CN1CCN(CC1)C2=CC(=C(C=C2)NC3=NC(=C(S3)C(=O)C4=C(C=CC=C4Cl)Cl)N)OC [XMD14-99] + N=C(N)NC(=N)NCCc1ccccc1 [Phenformin] (partner 250 µM)
Assay: as above
Conditions: first compound 0.08 µM
How it was run: as §1

Cell Line | relative viability
NCI-H522 | 0.658
NCI-H1623 | 0.573
NCI-H838 | 0.612
NCI-H1650 | 0.375
NCI-H2009 | 0.482
NCI-H1993 | 0.467
PC-14 | 0.639
LCLC-103H | 0.294
NCI-H596 | 0.799
NCI-H2228 | 0.382
EMC-BAC-2 | 0.51
NCI-H2087 | 0.445
HCC-366 | 0.647
NCI-H1666 | 0.567
NCI-H647 | 0.526
LK-2 | 0.363
NCI-H2126 | 0.526
NCI-H2342 | 0.675
SK-MES-1 | 0.644

Cell Line | relative viability
H3255 | 0.384
COR-L23 | 0.446
COR-L 105 | 0.477
LOU-NH91 | 0.716
ChaGo-K-1 | 0.474
NCI-H2170 | 0.393
NCI-H3122 | 0.372
HOP-62 | 0.707
HCC-44 | 0.261
A549 | 0.153
SW 900 | 0.6
LU99A | 0.888
BEN | 0.26
HARA | 0.438
HCC-78 | 0.681
NCI-H441 | 0.889
LCLC-97TM1 | 0.431
NCI-H2023 | 0.378
NCI-H1563 | 0.606

Same assay, conditions: first compound 0.8 µM

Cell Line | relative viability
NCI-H522 | 0.616
NCI-H1623 | 0.613
NCI-H838 | 0.556
NCI-H1650 | 0.498
NCI-H2009 | 0.442
NCI-H1993 | 0.506
PC-14 | 0.644
LCLC-103H | 0.348
NCI-H596 | 0.883
NCI-H2228 | 0.344
EMC-BAC-2 | 0.515
NCI-H2087 | 0.408
HCC-366 | 0.636
NCI-H1666 | 0.553
NCI-H647 | 0.494
LK-2 | 0.368
NCI-H2126 | 0.51
NCI-H2342 | 0.782
SK-MES-1 | 0.647

Cell Line | relative viability
H3255 | 0.398
COR-L23 | 0.418
COR-L 105 | 0.494
LOU-NH91 | 0.777
ChaGo-K-1 | 0.51
NCI-H2170 | 0.388
NCI-H3122 | 0.361
HOP-62 | 0.648
HCC-44 | 0.16
A549 | 0.16
SW 900 | 0.685
LU99A | 0.917
BEN | 0.292
HARA | 0.486
HCC-78 | 0.551
NCI-H441 | 0.811
LCLC-97TM1 | 0.414
NCI-H2023 | 0.422
NCI-H1563 | 0.63

Same assay, conditions: first compound 2.53 µM

Cell Line | relative viability
NCI-H522 | 0.702
NCI-H1623 | 0.584
NCI-H838 | 0.474
NCI-H1650 | 0.361
NCI-H2009 | 0.331
NCI-H1993 | 0.447
PC-14 | 0.517
LCLC-103H | 0.318
NCI-H596 | 0.733
NCI-H2228 | 0.168
EMC-BAC-2 | 0.445
NCI-H2087 | 0.346
HCC-366 | 0.564
NCI-H1666 | 0.494
NCI-H647 | 0.6
LK-2 | 0.423
NCI-H2126 | 0.45
NCI-H2342 | 0.68
SK-MES-1 | 0.575

Cell Line | relative viability
H3255 | 0.337
COR-L23 | 0.372
COR-L 105 | 0.398
LOU-NH91 | 0.573
ChaGo-K-1 | 0.494
NCI-H2170 | 0.342
NCI-H3122 | 0.291
HOP-62 | 0.643
HCC-44 | 0.303
A549 | 0.0976
SW 900 | 0.555
LU99A | 0.728
BEN | 0.248
HARA | 0.346
HCC-78 | 0.743
NCI-H441 | 0.738
LCLC-97TM1 | 0.466
NCI-H2023 | 0.338
NCI-H1563 | 0.6

Same assay, conditions: first compound 8 µM

Cell Line | relative viability
NCI-H522 | 0.692
NCI-H1623 | 0.54
NCI-H838 | 0.383
NCI-H1650 | 0.312
NCI-H2009 | 0.251
NCI-H1993 | 0.436
PC-14 | 0.308
LCLC-103H | 0.298
NCI-H596 | 0.784
NCI-H2228 | 0.152
EMC-BAC-2 | 0.384
NCI-H2087 | 0.2
HCC-366 | 0.554
NCI-H1666 | 0.533
NCI-H647 | 0.489
LK-2 | 0.215
NCI-H2126 | 0.421
NCI-H2342 | 0.513
SK-MES-1 | 0.475
